# Laboratory results published in patent US9309242B2, “Substituted pyrido[2,3-b]pyrazines as FGFR kinase inhibitors” (priority 2011, dated 2016).
# Like-named read-outs stand apart in the source and are kept apart here.
# Assays:
# [1] = target: Ba/F3-FGFR4-transfected cells (Homo sapiens, UniProt P22455); assay: Ba/F3-FGFR4 cellular proliferation assay, Alamar Blue; type: cell-based
# How it was run: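 Here, cells seeded at 20000 per well were treated 24 hours with compound, then given a 4-hour Alamar Blue incubation at 37° C before RFU measurement at ex. 540 nm and em. 590 nm.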
# [2] = target: T1, Ba/F3-FGFR1-transfected cells (Homo sapiens, UniProt P11362); assay: Ba/F3-FGFR1 (minus IL3) cellular proliferation assay, Alamar Blue; type: cell-based
# T1 construct: BAF3-FGFR1 (MIN IL3) pIC50; other: minus IL3
# T1 sequence (P11362 whole entry, change not shown): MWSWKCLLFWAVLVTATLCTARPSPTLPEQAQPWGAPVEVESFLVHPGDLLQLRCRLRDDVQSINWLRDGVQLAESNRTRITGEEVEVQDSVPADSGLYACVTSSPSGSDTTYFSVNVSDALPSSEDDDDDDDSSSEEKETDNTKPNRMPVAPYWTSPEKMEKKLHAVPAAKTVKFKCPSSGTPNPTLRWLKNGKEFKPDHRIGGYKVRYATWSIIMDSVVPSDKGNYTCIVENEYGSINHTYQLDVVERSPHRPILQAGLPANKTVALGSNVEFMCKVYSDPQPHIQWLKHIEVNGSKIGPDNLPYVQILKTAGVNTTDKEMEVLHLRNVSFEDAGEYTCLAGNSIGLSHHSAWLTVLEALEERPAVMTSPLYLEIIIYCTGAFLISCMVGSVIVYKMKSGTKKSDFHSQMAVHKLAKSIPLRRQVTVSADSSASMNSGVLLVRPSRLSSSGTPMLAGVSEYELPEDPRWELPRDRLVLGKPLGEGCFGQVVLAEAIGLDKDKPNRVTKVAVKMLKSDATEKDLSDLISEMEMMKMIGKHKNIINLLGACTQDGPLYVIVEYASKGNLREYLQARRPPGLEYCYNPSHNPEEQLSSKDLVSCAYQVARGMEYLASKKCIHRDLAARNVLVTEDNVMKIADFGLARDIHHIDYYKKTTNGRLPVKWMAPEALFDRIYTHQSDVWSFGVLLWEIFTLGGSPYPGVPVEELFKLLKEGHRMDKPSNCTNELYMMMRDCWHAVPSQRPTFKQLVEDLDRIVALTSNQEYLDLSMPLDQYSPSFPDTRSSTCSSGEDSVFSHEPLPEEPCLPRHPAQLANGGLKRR
# How it was run: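 Ba/F3-FGFR1 cells, 20000/well, RPMI-1640 + 10% FBS + 2 mM L-Gln; compound in DMSO; 24 h, 37 °C, 5% CO2; Alamar Blue 4 h; RFU ex 540/em 590.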
# FGFR2 (h) = FGFR2 (h) (Homo sapiens, UniProt P21802); assay: FGFR2 (enzymatic assay), TR-FRET; type: biochemical; settings: enzymatic assay; average values if tested multiple times; read-out: FGFR 2 pIC50 (converted)
# Chain of FGFR2 (h) (P21802 22-821): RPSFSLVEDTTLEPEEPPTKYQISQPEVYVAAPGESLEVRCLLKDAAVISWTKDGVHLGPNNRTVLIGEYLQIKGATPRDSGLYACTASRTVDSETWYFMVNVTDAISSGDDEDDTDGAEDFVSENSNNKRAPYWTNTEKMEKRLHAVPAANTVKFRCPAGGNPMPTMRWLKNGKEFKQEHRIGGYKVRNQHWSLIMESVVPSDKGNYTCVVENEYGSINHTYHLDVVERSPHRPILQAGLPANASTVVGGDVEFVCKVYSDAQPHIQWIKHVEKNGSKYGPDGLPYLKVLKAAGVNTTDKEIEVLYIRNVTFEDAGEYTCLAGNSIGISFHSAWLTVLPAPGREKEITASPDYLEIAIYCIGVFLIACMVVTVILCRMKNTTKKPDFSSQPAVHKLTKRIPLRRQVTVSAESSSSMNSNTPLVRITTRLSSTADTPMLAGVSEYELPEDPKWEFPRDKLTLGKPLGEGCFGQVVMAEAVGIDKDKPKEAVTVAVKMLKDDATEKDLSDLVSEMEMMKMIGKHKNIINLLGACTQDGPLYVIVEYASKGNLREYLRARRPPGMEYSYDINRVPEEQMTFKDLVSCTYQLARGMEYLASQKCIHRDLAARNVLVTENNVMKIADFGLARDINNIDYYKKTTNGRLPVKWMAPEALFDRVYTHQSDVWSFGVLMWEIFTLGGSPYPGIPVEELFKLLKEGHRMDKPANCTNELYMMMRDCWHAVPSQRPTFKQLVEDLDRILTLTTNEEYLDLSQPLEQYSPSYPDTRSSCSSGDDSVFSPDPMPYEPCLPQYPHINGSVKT
# How it was run: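 At low ATP (0.4 μM), enzyme activity of human FGFR2 (150 ng/ml) toward biotinylated Flt3 substrate (500 nM) was followed with test compound present. Reactions ran in 50 mM HEPES pH 7.5, 6 mM MnCl2, 1 mM DTT, 0.1 mM Na3VO4, 0.01% Triton-X-100, 1% DMSO.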
# [3] = test system: Ba/F3-FGFR3-transfected cells; assay: Ba/F3-FGFR3 (plus IL3) cellular proliferation assay, counterscreen with 10 ng/ml murine IL3; type: cell-based; settings: read-out: BAF3-FGFR3 (PLUS IL3) pIC50 (converted)
# How it was run: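 FGFR3-Ba/F3, 20000 cells/well, RPMI-1640 + 10% FBS, no phenol red; cpd in DMSO; 24 h, 37° C/5% CO2. Alamar Blue 4 h, RFU ex540/em590. Counterscreen: + murine IL3 10 ng/ml.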
# KDR (h) = KDR (h) (Homo sapiens, UniProt P35968); assay: KDR (VEGFR2) (enzymatic assay), TR-FRET; type: biochemical; settings: average values if tested multiple times, read-out: VEGFR 2 (KDR) pIC50 (converted)
# Chain of KDR (h) (P35968 20-1356): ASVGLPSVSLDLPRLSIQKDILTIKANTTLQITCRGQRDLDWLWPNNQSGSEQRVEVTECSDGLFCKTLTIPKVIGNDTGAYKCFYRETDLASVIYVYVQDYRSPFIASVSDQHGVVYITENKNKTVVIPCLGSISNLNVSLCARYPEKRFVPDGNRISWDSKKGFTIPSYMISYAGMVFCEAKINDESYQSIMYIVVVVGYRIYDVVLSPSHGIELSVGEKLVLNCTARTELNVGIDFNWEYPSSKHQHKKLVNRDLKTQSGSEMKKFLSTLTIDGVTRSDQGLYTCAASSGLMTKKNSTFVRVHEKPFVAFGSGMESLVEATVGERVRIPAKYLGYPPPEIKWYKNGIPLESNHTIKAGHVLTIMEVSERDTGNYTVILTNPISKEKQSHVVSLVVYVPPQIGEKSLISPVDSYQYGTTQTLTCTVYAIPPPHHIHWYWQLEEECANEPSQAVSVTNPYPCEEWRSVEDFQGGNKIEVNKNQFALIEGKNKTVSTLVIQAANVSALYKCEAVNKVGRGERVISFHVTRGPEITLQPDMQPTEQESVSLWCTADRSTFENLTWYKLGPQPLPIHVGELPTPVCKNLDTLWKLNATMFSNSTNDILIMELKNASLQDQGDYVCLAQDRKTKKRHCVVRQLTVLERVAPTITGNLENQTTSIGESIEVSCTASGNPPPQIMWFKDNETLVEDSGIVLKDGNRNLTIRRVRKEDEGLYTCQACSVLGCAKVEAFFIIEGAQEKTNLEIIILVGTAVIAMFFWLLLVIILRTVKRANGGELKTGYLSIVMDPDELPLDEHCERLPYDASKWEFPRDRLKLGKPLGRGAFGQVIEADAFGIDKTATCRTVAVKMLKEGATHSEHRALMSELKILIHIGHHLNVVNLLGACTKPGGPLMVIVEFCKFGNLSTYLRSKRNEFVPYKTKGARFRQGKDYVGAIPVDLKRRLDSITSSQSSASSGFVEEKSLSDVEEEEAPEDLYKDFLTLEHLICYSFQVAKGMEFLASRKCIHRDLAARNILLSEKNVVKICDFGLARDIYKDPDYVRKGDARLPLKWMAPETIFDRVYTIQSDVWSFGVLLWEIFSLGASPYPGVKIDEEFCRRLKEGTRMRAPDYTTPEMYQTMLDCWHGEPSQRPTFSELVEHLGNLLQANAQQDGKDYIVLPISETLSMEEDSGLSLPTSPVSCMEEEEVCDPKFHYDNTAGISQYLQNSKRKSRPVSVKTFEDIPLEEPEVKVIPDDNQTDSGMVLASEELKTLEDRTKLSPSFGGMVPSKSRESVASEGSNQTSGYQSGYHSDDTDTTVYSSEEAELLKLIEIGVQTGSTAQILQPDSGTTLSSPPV
# How it was run: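 Low-ATP (3 μM) TR-FRET kinase assay using 500 nM Btn-Flt3 peptide and 150 ng/ml enzyme, run 2 h at room temperature with 6 mM MnCl2 and 0.1 mM Na3VO4. Signal from Eu-anti-P-Tyr/SA-XL-665 is recorded in RFU.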
# FGFR1 (h) = FGFR1 (h) (Homo sapiens, UniProt P11362); assay: FGFR1 (enzymatic assay), TR-FRET; type: biochemical; settings: average values if tested multiple times, read-out: FGFR 1 pIC50 (converted)
# Chain of FGFR1 (h) (P11362 22-822): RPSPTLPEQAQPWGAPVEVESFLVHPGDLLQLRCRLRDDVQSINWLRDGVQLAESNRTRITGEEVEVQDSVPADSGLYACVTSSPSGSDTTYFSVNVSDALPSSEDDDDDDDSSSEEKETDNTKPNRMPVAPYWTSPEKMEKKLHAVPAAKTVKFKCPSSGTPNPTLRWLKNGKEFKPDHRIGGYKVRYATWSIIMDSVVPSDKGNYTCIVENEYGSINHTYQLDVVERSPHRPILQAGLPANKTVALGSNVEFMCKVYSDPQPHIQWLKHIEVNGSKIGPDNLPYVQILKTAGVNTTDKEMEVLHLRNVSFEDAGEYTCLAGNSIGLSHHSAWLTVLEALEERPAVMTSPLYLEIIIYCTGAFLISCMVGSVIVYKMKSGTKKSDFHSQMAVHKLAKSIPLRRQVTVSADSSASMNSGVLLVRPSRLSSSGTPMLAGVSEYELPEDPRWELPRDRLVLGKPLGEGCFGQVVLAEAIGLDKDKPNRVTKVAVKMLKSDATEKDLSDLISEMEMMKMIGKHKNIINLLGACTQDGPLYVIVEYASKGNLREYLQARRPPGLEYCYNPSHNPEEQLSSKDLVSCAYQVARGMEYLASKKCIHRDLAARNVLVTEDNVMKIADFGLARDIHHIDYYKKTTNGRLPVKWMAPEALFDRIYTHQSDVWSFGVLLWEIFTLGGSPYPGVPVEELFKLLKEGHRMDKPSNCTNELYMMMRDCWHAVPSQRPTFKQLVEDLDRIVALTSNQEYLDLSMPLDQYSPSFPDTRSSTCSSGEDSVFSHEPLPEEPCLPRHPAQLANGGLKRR
# [4] = test system: Ba/F3-KDR-transfected cells; assay: Ba/F3-KDR (plus IL3) cellular proliferation assay, counterscreen with 10 ng/ml murine IL3; type: cell-based; settings: read-out: BAF3-KDR (PLUS IL3) pIC50 (converted)
# How it was run: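 Cells grown with test compound at 37° C and 5% CO2 for 24 hours were given a resazurin/ferricyanide/ferrocyanide reagent for 4 hours before fluorescence (540/590 nm) was recorded.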
# [5] = plus IL3 (10 ng/ml murine IL3, counterscreen)
# Chain of Ba/F3-FGFR4-transfected cells (P22455 whole entry, change not shown): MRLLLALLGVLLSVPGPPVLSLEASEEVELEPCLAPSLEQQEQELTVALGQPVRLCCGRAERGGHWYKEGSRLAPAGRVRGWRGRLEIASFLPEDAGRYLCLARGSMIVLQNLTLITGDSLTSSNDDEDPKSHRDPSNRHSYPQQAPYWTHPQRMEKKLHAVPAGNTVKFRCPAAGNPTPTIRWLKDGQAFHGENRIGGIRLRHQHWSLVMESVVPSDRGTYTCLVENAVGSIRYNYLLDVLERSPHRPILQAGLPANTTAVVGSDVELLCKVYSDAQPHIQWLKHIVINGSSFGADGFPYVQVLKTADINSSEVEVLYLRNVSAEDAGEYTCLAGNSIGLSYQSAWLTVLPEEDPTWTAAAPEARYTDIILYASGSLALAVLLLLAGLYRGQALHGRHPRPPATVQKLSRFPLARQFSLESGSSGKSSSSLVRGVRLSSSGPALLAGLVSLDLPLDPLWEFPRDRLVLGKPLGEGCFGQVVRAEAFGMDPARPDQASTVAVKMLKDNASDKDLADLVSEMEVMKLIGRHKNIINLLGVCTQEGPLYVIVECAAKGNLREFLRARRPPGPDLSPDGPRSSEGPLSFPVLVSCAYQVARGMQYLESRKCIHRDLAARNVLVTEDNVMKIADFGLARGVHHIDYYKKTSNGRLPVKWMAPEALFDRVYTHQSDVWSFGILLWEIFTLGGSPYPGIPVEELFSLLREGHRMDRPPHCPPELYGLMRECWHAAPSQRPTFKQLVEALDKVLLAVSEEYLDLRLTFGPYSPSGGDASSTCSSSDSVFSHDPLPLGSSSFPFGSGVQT
Structure (SMILES),BAF3-FGFR4 pIC50 [1],BAF3-FGFR1 (MIN IL3) pIC50 [2],IC50 (FGFR2 (h)),"IC50 [3, 5]",IC50 (KDR (h)),IC50 (FGFR1 (h)),"IC50 [4, 5]",IC50 [3],IC50 [4]
COc1cc(OC)c(Cl)c(N(Cc2ncc[nH]2)c2ccc3ncc(-c4cnn(C)c4)nc3n2)c1 [Compound 42],7.35,8.57,2.04 nM,> 10000 nM,8.91 nM,1.38 nM,> 10000 nM,–,–
CNCCn1/c(=N/c2c(F)cccc2F)ccc2ncc(-c3cnn(C)c3)nc21 [Compound 44],<5,5.12,219 nM,> 10000 nM,> 1000 nM,490 nM,> 10000 nM,–,–
COc1cc(/N=c2\ccc3ncc(-c4cnn(C)c4)nc3n2CC2CCC(=O)N2)c(F)c(OC)c1 (stereo not drawn) [Compound 45],6.59,7.14,1.91 nM,> 10000 nM,13.5 nM,1.48 nM,> 10000 nM,–,–
COc1cc(OC)c(F)c(N(CC2CCC(=O)N2)c2ccc3ncc(-c4cnn(C)c4)nc3n2)c1 (stereo not drawn) [Compound 46],6.76,7.33,2.45 nM,> 10000 nM,41.7 nM,1.82 nM,> 10000 nM,–,–
COc1cc(OC)cc(N(CC2CCC(=O)N2)c2ccc3ncc(-c4cnn(C)c4)nc3n2)c1 (stereo not drawn) [Compound 49],6.24,6.78,1.95 nM,> 10000 nM,60.3 nM,3.24 nM,> 10000 nM,–,–
COCC(O)CN(c1ccc2ncc(-c3cnn(C)c3)nc2n1)c1c(F)c(OC)cc(OC)c1F (stereo not drawn) [Compound 50],7.66,8.10,3.89 nM,> 10000 nM,21.9 nM,1.74 nM,> 10000 nM,–,–
COCC(O)Cn1c(=Nc2c(F)c(OC)cc(OC)c2F)ccc2ncc(-c3cnn(C)c3)nc21 (stereo not drawn) [Compound 51],7.77,8.48,1.29 nM,> 10000 nM,7.76 nM,0.589 nM,> 10000 nM,–,–
COc1cc(OC)c(F)c(/N=c2\ccc3ncc(-c4cnn(C)c4)nc3n2CCCN2CCCC2=O)c1F [Compound 55],7.71,8.12,1.26 nM,> 10000 nM,2.82 nM,0.603 nM,> 10000 nM,–,–
COc1cc(OC)c(F)c(N(CCCN2CCCC2=O)c2ccc3ncc(-c4cnn(C)c4)nc3n2)c1F [Compound 56],7.41,7.53,2.82 nM,> 10000 nM,7.76 nM,0.891 nM,> 10000 nM,–,–
COc1cc(OC)c(F)c(N(CC(O)COC(C)C)c2ccc3ncc(-c4cnn(C)c4)nc3n2)c1F (stereo not drawn) [Compound 63],7.49,7.90,6.17 nM,> 10000 nM,15.8 nM,3.72 nM,> 10000 nM,–,–
COc1cc(OC)c(F)c(/N=c2\ccc3ncc(-c4cnn(C)c4)nc3n2CC(O)COC(C)C)c1F (stereo not drawn) [Compound 64],7.52,8.40,1.62 nM,> 10000 nM,7.41 nM,0.776 nM,> 10000 nM,–,–
COc1ccc(Cl)c(N(Cc2ncc[nH]2)c2ccc3ncc(-c4cnn(C)c4)nc3n2)c1Cl [Compound 65],5.21,5.97,~11.2 nM,> 10000 nM,191 nM,38.9 nM,> 10000 nM,–,–
COc1cc(OC)c(F)c(N(CCN)c2ccc3ncc(-c4cnn(C)c4)nc3n2)c1F [Compound 67],7.37,8.20,1.78 nM,> 10000 nM,14.5 nM,0.813 nM,> 10000 nM,–,–
COc1cc(OC)c(F)c(/N=c2\ccc3ncc(-c4cnn(C)c4)nc3n2CCN)c1F [Compound 68],7.14,7.86,1.58 nM,> 10000 nM,15.8 nM,0.575 nM,> 10000 nM,–,–
CNCCN(c1ccc2ncc(-c3cnn(C)c3)nc2n1)c1c(F)ccc(OC)c1Cl [Compound 69],6.11,7.06,4.27 nM,> 10000 nM,417 nM,3.02 nM,> 10000 nM,–,–
COc1cc(OC)cc(N(Cc2nc[nH]n2)c2ccc3ncc(-c4cnn(C)c4)nc3n2)c1 [Compound 71],7.14,7.49,1.55 nM,–,19.1 nM,1.07 nM,–,> 10000 nM,> 10000 nM
COc1ccc(F)c(N(Cc2ncc[nH]2)c2ccc3ncc(-c4cnn(C)c4)nc3n2)c1Cl [Compound 73],6.50,7.59,2.82 nM,> 10000 nM,63.1 nM,2.4 nM,> 10000 nM,–,–
CNCCN(c1ccc2ncc(-c3cnn(C)c3)nc2n1)c1c(Cl)c(OC)cc(OC)c1Cl [Compound 81],5.76,7.04,9.12 nM,> 10000 nM,195 nM,5.89 nM,> 10000 nM,–,–
